Data as given in patent US20230157288A1, “PEST CONTROL METHOD, PEST CONTROL AGENT COMPOSITION, AND PEST CONTROL AGENT SET” (priority 2020, published 2023).
Where a name gives a salt, the structure may show the parent alone. Read-outs that look alike come from different tables or passages of the source.

What was measured:
Assay type in all cases: in vivo
Phyllotreta striolata = experiment: Test for confirming effect on Phyllotreta striolata (bok choy seedling sprinkling, insecticidal rate)
Description: Test for Confirming Effect on Phyllotreta striolata
A flowable agent containing the compound A was diluted with water containing RABIDEN 3S diluted 5000 times to prepare chemical solutions A containing the compound A at twice concentrations described in Table 5.
A preparation containing the compound B or a flowable agent containing the compound B was diluted with water containing RABIDEN 3S diluted 5000 times to prepare chemical solutions B containing the compound B at twice concentrations described in Table 5.
A mixed solution obtained by mixing the chemical solution A and the chemical solution B in an equivalent amount was sprinkled on bok choy seedlings (at the seventh true leaf stage) planted in 9-cm pots. After air dry, these bok choy seedlings were placed in plastic cups, and ten Phyllotreta striolata imagoes were released (AB mixture application plot).
(§1) The chemical solution A and the chemical solution B were twice diluted with the water containing RABIDEN 3S diluted 5000 times to obtain a chemical solution A′ and a chemical solution B′.
The chemical solution A′ was sprinkled on bok choy seedlings (at the seventh true leaf stage) planted in 9-cm pots. After air dry, these bok choy seedlings were placed in plastic cups, and ten Phyllotreta striolata imagoes were released (A single application plot). The chemical solution B′ was sprinkled on bok choy seedlings (at the seventh true leaf stage) planted in 9-cm pots. After air dry, these bok choy seedlings were placed in plastic cups, and ten Phyllotreta striolata imagoes were released (B single application plot).
Then, the bok choy seedlings sprinkled with the chemical solutions were placed in a thermostatic chamber at a temperature of 25° C. and a humidity of 60%, viability determination was performed 6 days after the insect release, and the insecticidal rate was calculated by the following equation. The test was repeated twice.
Insecticidal rate (%)=(the number of the dead insects/the number of tested insects)×100
(§2) To show the degree of a synergistic effect, the “effectiveness expectation” was calculated based on the Colby method. When the effectiveness is higher than the “effectiveness expectation”, it is determined that there is a synergistic effect.
(§3) Expectation of insecticidal rate (%) (E)=X+Y−XY/100
(§4) X: measurement of insecticidal rate in B single application plot (%)
(§5) Y: measurement of insecticidal rate in A single application plot (%)

Plutella xylostella = experiment: Test for confirming effect on Plutella xylostella (cabbage leaf immersion, insecticidal rate); conditions: single chemical
Description: Test for Confirming Effect on Plutella xylostella
A flowable agent containing the compound A was diluted with water containing RABIDEN® 3S diluted 5000 times to prepare chemical solutions A containing the compound A at twice concentrations described in Table 3.
A preparation containing the compound B or a flowable agent containing the compound B was diluted with water containing RABIDEN 3S diluted 5000 times to prepare chemical solutions B containing the compound B at twice concentrations described in Table 3, respectively.
Cabbage leaves were immersed in a mixed solution obtained by mixing the chemical solution A and the chemical solution B in an equivalent amount for 30 seconds, and these cabbage leaves were placed in a petri dish, and five second-instar Plutella xylostella larvae were released (AB mixture application plot).
as §1
Cabbage leaves were immersed in the chemical solution A′ for 30 seconds, and these cabbage leaves were placed in another petri dish, and five second-instar Plutella xylostella larvae were released (A single application plot). Cabbage leaves were immersed in the chemical solution B′ for 30 seconds, and these cabbage leaves were placed in another petri dish, and five second-instar Plutella xylostella larvae were released (B single application plot).
Then, these petri dishes were placed in a thermostatic chamber at a temperature of 25° C. and a humidity of 60%. Three days after the larva release, viability determination was performed, and the insecticidal rate was calculated by the following equation. The test was repeated twice.
(§6) Insecticidal rate (%)=(the number of dead insects/the number of tested insects)×100
as §2, §3, §4, §5

Aphis gossypii = experiment: Test for confirming effect on Aphis gossypii (cucumber sprinkling, insecticidal rate)
Description: Test for confirming effect on Aphis gossypii A flowable agent containing the compound A was diluted with water containing RABIDEN 3S diluted 5000 times to prepare chemical solutions A containing the compound A at twice concentrations described in Table 4.
A preparation containing the compound B or a flowable agent containing the compound B was diluted with water containing RABIDEN 3S diluted 5000 times to prepare chemical solutions B containing the compound B at twice concentrations described in Table 4.
First, 9-cm pots were sown with cucumbers. Aphis gossypii female imagoes were released on the cucumbers 10 days after the sprouting. The borne first-instar larvae were left, and the female imagoes were removed on the next day. A mixed solution obtained by mixing the chemical solution A and the chemical solution B in an equivalent amount was sprinkled on the cucumbers (AB mixture application plot).
as §1
The chemical solution A′ was sprinkled on the cucumbers sown with the first-instar larvae by the same method as in the AB mixture application plot (A single application plot). The chemical solution B′ was sprinkled on the cucumbers sown with the first-instar larvae by the same method as in the AB mixture application plot (B single application plot).
Then, the cucumbers sprinkled with the chemical solutions were placed in a thermostatic chamber at a temperature of 25° C. and a humidity of 60%, the viability of the Aphis gossypii was inspected after 6 days, and the insecticidal rate was calculated by the following equation. The test was repeated twice.
as §6, §2, §3, §4, §5

[1] = Aphis gossypii, 144 h, single chemical, 0.12 ppm, after 6 days, read-out: Effectiveness Measurement (insecticidal rate)
[2] = Plutella xylostella, read-out: Effectiveness Measurement (insecticidal rate)
[3] = Phyllotreta striolata, 144 h, single application, 31 ppm, Phyllotreta striolata imagoes, 6 days after release, read-out: Effectiveness Measurement (insecticidal rate)
[4] = Aphis gossypii, 144 h, single chemical, 2 ppm, after 6 days, read-out: Effectiveness Measurement (insecticidal rate)
[5] = Phyllotreta striolata, 144 h, single application, Phyllotreta striolata imagoes, 6 days after release, read-out: Effectiveness Measurement (insecticidal rate)
[6] = single chemical, 0.12 ppm, after 6 days
[7] = Aphis gossypii, 144 h, single chemical, after 6 days, read-out: Effectiveness Measurement (insecticidal rate)
[8] = Plutella xylostella, 0.5 ppm, read-out: Effectiveness Measurement (insecticidal rate)

Molecule: N#Cc1ccc(CC(=NNC(=O)Nc2ccc(OC(F)(F)F)cc2)c2cccc(C(F)(F)F)c2)cc1 (mixture of isomers) [Metaflumizone, metaflumizone]
- Effectiveness Measurement (insecticidal rate) (Phyllotreta striolata; single application, 31 ppm, Phyllotreta striolata imagoes, 6 days after release): 40%
- Effectiveness Measurement (insecticidal rate) (Plutella xylostella; 0.5 ppm): 20%

Molecule: Cc1c(COC(=O)[C@@H]2[C@H](/C=C(\Cl)C(F)(F)F)C2(C)C)cccc1-c1ccccc1 (racemic) [Bifenthrin]
- pest or weed control at 0.03 ppm (Aphis gossypii; Aphis gossypii, 144 h, single chemical, 0.03 ppm, after 6 days, read-out: Effectiveness Measurement (insecticidal rate)): 42%
- pest or weed control at 125 ppm (Plutella xylostella; Plutella xylostella, 125 ppm, read-out: Effectiveness Measurement (insecticidal rate)): 40%

Molecule: COP(=O)(NC(C)=O)SC (stereo not shown) [Acephate, acephate]
- pest or weed control at 8 ppm (Phyllotreta striolata; Phyllotreta striolata, 144 h, read-out: Effectiveness Measurement (insecticidal rate)): 40%
- pest or weed control at 31 ppm (Aphis gossypii; Aphis gossypii, 144 h, read-out: Effectiveness Measurement (insecticidal rate)): 50%

Molecule: C/C(=N\C#N)N(C)Cc1ccc(Cl)nc1 [Acetamiprid, acetamiprid]
- pest or weed control at 8 ppm (Phyllotreta striolata; Phyllotreta striolata, 144 h, single application, 8 ppm, Phyllotreta striolata imagoes, 6 days after release, read-out: Effectiveness Measurement (insecticidal rate)): 20%
- pest or weed control at 0.12 ppm (Aphis gossypii; [1]): 40%
- pest or weed control at 8 ppm (Plutella xylostella; [2]): 10%

Molecule: CC(C)N1C(=O)N(c2ccccc2)CS/C1=N\C(C)(C)C [Buprofezin]
- pest or weed control at 31 ppm (Aphis gossypii; Aphis gossypii, 144 h, single chemical, 31 ppm, after 6 days, read-out: Effectiveness Measurement (insecticidal rate)): 33%

Molecule: CNC(=O)Oc1cccc2c1OC(C)(C)C2 [Carbofuran, carbofuran]
- pest or weed control at 31 ppm (Phyllotreta striolata; [3]): 20%
- pest or weed control at 2 ppm (Aphis gossypii; [4]): 14%
- pest or weed control at 2 ppm (Plutella xylostella; [2]): 10%

Molecule: CN(C)C(CSC(N)=O)CSC(N)=O [Cartap hydrochloride, cartap hydrochloride]
- pest or weed control at 31 ppm (Phyllotreta striolata; [3]): 60%
- pest or weed control at 2 ppm (Plutella xylostella; [2]): 40%

Molecule: CCOCn1c(-c2ccc(Cl)cc2)c(C#N)c(Br)c1C(F)(F)F [Chlorfenapyr, chlorfenapyr]
- pest or weed control at 2 ppm (Phyllotreta striolata; Phyllotreta striolata, 144 h, single application, 2 ppm, Phyllotreta striolata imagoes, 6 days after release, read-out: Effectiveness Measurement (insecticidal rate)): 40%
- pest or weed control at 2 ppm (Aphis gossypii; [4]): 6%
- pest or weed control at 2 ppm (Plutella xylostella; [2]): 20%

Molecule: CCS(=O)(=O)c1cc(C2CC2)cnc1-c1ncc(C=C(Cl)C(F)(F)F)n1C [Compound (II)]
- pest or weed control at 0.5 ppm (Phyllotreta striolata; [5]): 20%
- pest or weed control at 0.12 ppm (Aphis gossypii; [1]): 18%
- Effectiveness Measurement (insecticidal rate) (Aphis gossypii; [6]): 18%
- pest or weed control at 0.12 ppm (Plutella xylostella; Plutella xylostella, 0.12 ppm, read-out: Effectiveness Measurement (insecticidal rate)): 10%
- Effectiveness Measurement (insecticidal rate) (Plutella xylostella; 0.12 ppm): 10%

Molecule: CCS(=O)(=O)c1cc(C2CC2)cnc1-c1ncc(C(F)C(F)(C(F)(F)F)C(F)(F)F)n1C (stereo not shown) [Compound (III)]
- pest or weed control at 0.5 ppm (Phyllotreta striolata; [5]): 20%
- pest or weed control at 0.5 ppm (Aphis gossypii; [7]): 31%
- pest or weed control at 0.5 ppm (Plutella xylostella; [8]): 40%

Molecule: CCS(=O)(=O)c1cc(C(F)(F)F)cnc1-c1ncc(/C=C(\Cl)C(F)(F)C(F)(F)F)n1C [Compound (IV)]
- pest or weed control at 0.5 ppm (Phyllotreta striolata; [5]): 10%
- pest or weed control at 0.5 ppm (Aphis gossypii; [7]): 64%
- pest or weed control at 0.03 ppm (Plutella xylostella; Plutella xylostella, 0.03 ppm, read-out: Effectiveness Measurement (insecticidal rate)): 20%

Molecule: CNC(=O)c1cc(C#N)cc(C)c1NC(=O)c1cc(Br)nn1-c1ncccc1Cl [Cyantraniliprole, cyantraniliprole]
- pest or weed control at 0.5 ppm (Phyllotreta striolata; [5]): 20%
- pest or weed control at 0.12 ppm (Aphis gossypii; [1]): 50%
- pest or weed control at 8 ppm (Plutella xylostella; [2]): 10%

Molecule: N#Cc1nn(-c2c(Cl)cc(C(F)(F)F)cc2Cl)c(N)c1[S+]([O-])C(F)(F)F (stereo not shown) [Fipronil, fipronil]
- pest or weed control at 0.12 ppm (Phyllotreta striolata; Phyllotreta striolata, 144 h, single application, 0.12 ppm, Phyllotreta striolata imagoes, 6 days after release, read-out: Effectiveness Measurement (insecticidal rate)): 20%
- pest or weed control at 0.5 ppm (Aphis gossypii; [7]): 29%
- pest or weed control at 0.5 ppm (Plutella xylostella; [8]): 40%

Molecule: N#CCNC(=O)c1cnccc1C(F)(F)F [Flonicamid]
- Effectiveness Measurement (insecticidal rate) (Aphis gossypii; [6]): 21%

Molecule: CON=CNC(=O)c1ccc(C2=NOC(c3cc(Cl)cc(Cl)c3)(C(F)(F)F)C2)cc1C (stereo not shown) [Fluxametamide, fluxametamide]
- Effectiveness Measurement (insecticidal rate) (Phyllotreta striolata; single application, 2 ppm, Phyllotreta striolata imagoes, 6 days after release): 20%
- Effectiveness Measurement (insecticidal rate) (Aphis gossypii; single chemical, 2 ppm, after 6 days): 60%
- Effectiveness Measurement (insecticidal rate) (Plutella xylostella; 0.12 ppm): 40%

Molecule: CC1=NNC(=O)N(/N=C/c2cccnc2)C1 [Pymetrozine]
- pest or weed control at 0.12 ppm (Aphis gossypii; [1]): 68%

Molecule: CCc1ccc(C(=O)NN(C(=O)c2cc(C)cc(C)c2)C(C)(C)C)cc1 [Tebufenozide]
- pest or weed control at 31 ppm (Plutella xylostella; Plutella xylostella, 31 ppm, read-out: Effectiveness Measurement (insecticidal rate)): 40%

Molecule: O=C(NC(=O)c1c(F)cccc1F)Nc1cc(Cl)c(F)c(Cl)c1F [Teflubenzuron]
- pest or weed control at 0.5 ppm (Plutella xylostella; [8]): 40%

Molecule: CCc1nn(C)c(C(=O)NCc2ccc(Oc3ccc(C)cc3)cc2)c1Cl [Tolfenpyrad]
- pest or weed control at 0.12 ppm (Aphis gossypii; [1]): 18%
- pest or weed control at 8 ppm (Plutella xylostella; [2]): 20%

Molecule: Abamectin
- Effectiveness Measurement (insecticidal rate) (Plutella xylostella; 0.5 ppm): 40%

Molecule: Spinetoram
- Effectiveness Measurement (insecticidal rate) (Plutella xylostella; 0.0076 ppm): 40%
